According to PMC9421656, “Beyond Retigabine: Design, Synthesis, and Pharmacological Characterization of a Potent and Chemically Stable Neuronal Kv7 Channel Activator with Anticonvulsant Activity” (Journal of Medicinal Chemistry, 2022):

Columns and labels:
Kv7.2 W236L channels = target: T1, Kv7.2 W236L channels (Homo sapiens, UniProt O43526, W236L); assay: Whole-cell patch-clamp on homomeric Kv7.2 W236L mutant channels; format: cell-based; conditions: 10 μM RET or 1 μM 60
T1 construct: expressed in transfected cells; host or cells: CHO cells, transient transfection (pcDNA3.1)

Kv7.2 S303A channels = target: T2, Kv7.2 S303A channels (Homo sapiens, UniProt O43526, S303A); assay: Whole-cell patch-clamp on homomeric Kv7.2 S303A mutant channels; format: cell-based; conditions: 10 μM RET or 1 μM 60
T2 construct: expressed in transfected cells; host or cells: CHO cells, transient transfection (pcDNA3.1)
Excerpt: Current scale, 200 pA; time scale, 200 ms. (B,C) Dose–response curves reporting the effects of the 3 indicated compounds on the V1/2 shift (ΔV1/2) in mV (B) and on maximal current density (Idrug/Icontrol; C) calculated at +20 mV for Kv7.2/Kv7.3 channels.
Channel subunits were expressed in Chinese hamster ovary (CHO) cells by transient transfection, using plasmids containing cDNAs encoding human Kv7.2 and/or Kv7.3, all cloned in the pcDNA3.1 vector. According to the experimental protocol, these plasmids were expressed individually or in combination, together with a plasmid-expressing enhanced green fluorescent protein (Clontech, Palo Alto, CA) used as a transfection marker. Total cDNA in the transfection mixture was kept at 4 μg. CHO cells were grown in 100 mm plastic Petri dishes in Dulbecco’s modified Eagle’s medium containing 10% fetal bovine serum, nonessential amino acids (0.1 mM), penicillin (50 U/mL), and streptomycin ([…]) in a humidified atmosphere at 37 °C with 5% CO2.
Currents from CHO cells were recorded at room temperature (20–22 °C) using the whole-cell configuration of the patch-clamp technique, with glass micropipettes of 3–5 MΩ resistance. During the recording, constant perfusion of extracellular solution was maintained. […] The pipette (intracellular) solution contained (in mM): 140 KCl, 2 MgCl2, 10 EGTA, 10 HEPES, 5 Mg^2+-ATP, at pH 7.3–7.4, with KOH. […]

[1] = Photostability under UV-visible light with HPLC analysis (degradation, dimer formation); format: physicochemical; conditions: for % Degradation (3h, UV): 10 μM, buffered aqueous solution pH 7.4, 3 h UV-visible light, ± SD; for Dimers Formation: HPLC at 550 nm
Excerpt: Two different HPLC wavelengths were utilized: (a) […] to evaluate the decreased concentration of the starting molecule; (b) 550 nm to investigate the formation of phenazine/phenazinium dimers, as previously described.[10] Unfortunately, dimer formation was detected for all tested compounds, except for 23 and 24. […]. […]. The first group consisted of N4 (−X- in Table 2) substituted analogues, in which the tertiary amine is unavailable for the formation of phenazine dimers (compounds 25–28). […]. The third group included derivatives replacing hydrogen atoms with electron-withdrawing fluorine atoms at position R2 of the benzene-1,2,4-triamine core scaffold (compounds 59, 60), a strategy likely reducing the reactivity of N2 and N4. […].
Photostability experiments were performed by dissolving compounds in DMSO and then diluting in buffered aqueous solutions at pH 7.4 to a final concentration of 10 μM. 1 cm quartz cells, filled with the abovementioned solutions, were irradiated by a UV lamp (UV Consulting TQ 150 equipped with Duran 50 sleeve and 150 W power supply unit, Peschl, Germany) at a fixed distance of 20 cm from the UV source. Control samples were maintained at 37 °C, wrapped with aluminum foil to avoid light exposure, and used to assess chemical stability of the compounds. At predetermined intervals, aliquots were withdrawn and analyzed by UHPLC in order to assess the concentration decrease of the starting materials and the presence of the dimers usually formed by retigabine.
Photostability and chemical stability experiments were carried out on a Kinetex^TM C18 150 × 2.1 mm × 2.6 μm (100 Å) column (Phenomenex, Bologna, Italy). The optimal mobile phase consisted of 0.1% TFA/H2O v/v (A) and 0.1% TFA/ACN v/v (B). Analysis was performed in gradient elution as follows: 0–13.0 min, 5–65% B; 13–14.0 min, 65–95% B; 14–15.0 min, isocratic to 95% B; 15–15.01 min, 95–5% B; then 3 min for column re-equilibration. The flow rate was 0.5 mL min^–1. The column oven temperature was set to 45 °C. The injection volume was 7 μL of sample. The following PDA parameters were applied: sampling rate, 12.5 Hz; detector time constant, 0.160 s; cell temperature, 40 °C. Data acquisition was set in the range 190–800 nm, and chromatograms were monitored at 224 nm to assess the decrease in concentration of the starting material, while a wavelength of 550 nm was used to eventually detect dimerization.

[2] = In vitro metabolism assay (S9 fraction of human liver microsomes); format: in vitro ADME
Protocol: To further explore the metabolic stability of compounds 25, 26, and 60 in a biologically relevant model, they were tested in an in vitro metabolism assay (S9 fraction of human liver microsomes) using retigabine as a comparator.[33],[34] In this assay, a very small extent (4.7 ± 0.5%) of retigabine undergoes phase I metabolism, whereas a larger fraction (17.4 ± 1.2%) was metabolized in phase II reactions, as previously reported.[35]

[3] = S9 fraction of human liver microsomes

Structure (SMILES) | Kv7 opening ability in W236L channels (Kv7.2 W236L channels) | Kv7 opening ability in S303A channels (Kv7.2 S303A channels) | % Degradation (3h, UV) [1] | Dimers Formation ([1]; 3 h UV-visible light) | Photodegradation (in words) ([1]; 3 h UV-visible light, compared with retigabine) | Phase I turnover metabolism ([2]; human) | Phase II turnover metabolism ([2]; human) | logP (Lipophilicity (log P)) | Phase I turnover metabolism [2, 3] | Phase II turnover metabolism [2, 3] | log P (Lipophilicity (log P); method not stated)
CC(C)(C)CC(=O)Nc1ccc(NCc2ccc(C(F)(F)F)cc2)c(F)c1N [compound 60, N-(2-Amino-3-fluoro-4-((4-(trifluoromethyl)benzyl)amino)phenyl)-3,3-dimethylbutanamide] | almost fully abolished | slightly but significantly reduced | 34.8± 1.8% | failed to dimerize and No | more photostable than retigabine | 8.2 ± 2.7% | 15.6 ± 0.3% | 4.74 | – | – | –
CCOC(=O)Nc1ccc(NCc2ccc(F)cc2)cc1N [RET, retigabine] | almost fully abolished | slightly but significantly reduced | 61.3±0.1% | Yes | – | – | – | – | 4.7 ± 0.5% | 17.4 ± 1.2% | 3.08
